{
  "source": "patent US20050142229A1",
  "about": "“Pharmaceutical activity and manufacturing method of the four-plant-derived coronary blood flow enhancing agent” (priority 2003, published 2005)",
  "system": "isolated guinea pig heart",
  "experiment": "Effect on coronary blood flow of the isolated guinea pig heart (perfusion with KH solution)",
  "procedure": "1. Effect on coronary blood flow of the isolated guinea pig heart. • (1) The perfusion circuit was maintained at 37±1° C. and the perfusate in the condensing tube was thermostatic. The upper end of the condensing tube was connected with reservoir and the lower with aortic cannula via rubber tube. The perfusate level in reservoir A was constant by controlling the height of liquid below the air inlet in reservoir B. The perfusate level was about 50 cm above the aortic root. Constant oxygen was gassed into reservoir A to make the KH solution saturated with oxygen. When full of the oxygenated LH solution, the perfusion tube was clamped. • (2) On […], weighing 300 g, was stunned and exsanguinated via carotid. The chest and pericardium were opened, and then the heart was suspended in the pericardial cradle. The heart was exercised and immediately put into the cold KH solution (4° C.). The remaining blood was pressed out gently. After aortic cannulation at the top of the ascending aorta, the clamp was opened and the coronary venous effluent was present (route: coronary artery→myocardium→right atrium→vena cava and pulmonary artery). The pressure transducer was connected with the apex of heart to record the graphs and count the heart beat. The coronary venous effluent dripped into the measuring cup via a funnel. • (3) Coronary Blood Flow Measurement: The heart was allowed to recover for 10 minutes to stabilize coronary blood flow, heart rate, and heart beat amplitude. The per-minute flow volume was measured consecutively for 3 minutes. If the values were similar, the average was calculated for the normal coronary blood flow. […] The test sample and isoprenaline was injected into the aortic cannula respectively. The per-minute coronary blood flow, heart rate and heart beat duration were measured during 1˜10 min after administration, the maximum and minimum were picked out to caculate the extreme difference. Note: the second administration should not be given until the coronary blood flow returned to normal. Five replicate experiments were conducted to ensure the reproductivity.",
  "key": {"[1]": {"details": "isolated heart, 0.25 μg injected into aortic cannula, X ± SD"}},
  "data": [
    {"compound": "CC(C)NCC(O)c1ccc(O)c(O)c1", "note": "(stereo not drawn) [Isoprenaline]", "values": [
      {"measurement": "coronary blood flow (result in words)", "setting": "isolated guinea pig heart", "value": "increased"},
      {"measurement": "heart rate (result in words)", "setting": "isolated guinea pig heart", "value": "increased"},
      {"measurement": "myocardial contraction (result in words)", "setting": "isolated guinea pig heart", "value": "increased"},
      {"measurement": "Coronary Blood Flow, After administration", "setting": "[1]", "value": "20 ± 4", "unit": "mL/min"},
      {"measurement": "Heart Rate, After administration", "setting": "[1]", "value": "198 ± 21", "unit": "time/min"},
      {"measurement": "Heart beat duration, After administration", "setting": "[1]", "value": "62 ± 10", "unit": "min"}
    ]}
  ]
}
